Measurements: ChEMBL document CHEMBL4330135, “Discovery of 2-phenylthiazole-4-carboxylic acid, a novel and potent scaffold as xanthine oxidase inhibitors” (Bioorg Med Chem Lett, 2019)
The source made the active and inactive calls. The rule behind the calls is not given here.

Assays:
[1] = target: T1, Xanthine dehydrogenase/oxidase (Bos taurus, UniProt P80457); assay: Inhibition of bovine milk xanthine oxidase at 10 uM using xanthine as substrate preincubated for 3 mins followed by substrate addition and measured at 1 min for 10 mins relative to control; conditions: cattle
[2] = target: T1, Xanthine dehydrogenase/oxidase; assay: Inhibition of bovine milk xanthine oxidase using xanthine as substrate preincubated for 3 mins followed by substrate addition and measured at 1 min for 10 mins
Mus musculus [3] = assay: Hypouricemic effect in ICR mouse model of potassium oxonate and hypoxanthine-induced acute hyperuricemia assessed as reduction in serum uric acids level at 20 mg/kg, po dosed 1 hr after potassium oxonate and hypoxanthine challenge and measured after 1 hr; assay type: functional, organism-based
Mus musculus [4] = assay: Hypouricemic effect in ICR mouse model of potassium oxonate and hypoxanthine-induced acute hyperuricemia assessed as reduction in serum uric acids level at 5 mg/kg, po dosed 1 hr after potassium oxonate and hypoxanthine challenge and measured after 1 hr; assay type: functional, organism-based

T1 sequence (P80457 whole entry): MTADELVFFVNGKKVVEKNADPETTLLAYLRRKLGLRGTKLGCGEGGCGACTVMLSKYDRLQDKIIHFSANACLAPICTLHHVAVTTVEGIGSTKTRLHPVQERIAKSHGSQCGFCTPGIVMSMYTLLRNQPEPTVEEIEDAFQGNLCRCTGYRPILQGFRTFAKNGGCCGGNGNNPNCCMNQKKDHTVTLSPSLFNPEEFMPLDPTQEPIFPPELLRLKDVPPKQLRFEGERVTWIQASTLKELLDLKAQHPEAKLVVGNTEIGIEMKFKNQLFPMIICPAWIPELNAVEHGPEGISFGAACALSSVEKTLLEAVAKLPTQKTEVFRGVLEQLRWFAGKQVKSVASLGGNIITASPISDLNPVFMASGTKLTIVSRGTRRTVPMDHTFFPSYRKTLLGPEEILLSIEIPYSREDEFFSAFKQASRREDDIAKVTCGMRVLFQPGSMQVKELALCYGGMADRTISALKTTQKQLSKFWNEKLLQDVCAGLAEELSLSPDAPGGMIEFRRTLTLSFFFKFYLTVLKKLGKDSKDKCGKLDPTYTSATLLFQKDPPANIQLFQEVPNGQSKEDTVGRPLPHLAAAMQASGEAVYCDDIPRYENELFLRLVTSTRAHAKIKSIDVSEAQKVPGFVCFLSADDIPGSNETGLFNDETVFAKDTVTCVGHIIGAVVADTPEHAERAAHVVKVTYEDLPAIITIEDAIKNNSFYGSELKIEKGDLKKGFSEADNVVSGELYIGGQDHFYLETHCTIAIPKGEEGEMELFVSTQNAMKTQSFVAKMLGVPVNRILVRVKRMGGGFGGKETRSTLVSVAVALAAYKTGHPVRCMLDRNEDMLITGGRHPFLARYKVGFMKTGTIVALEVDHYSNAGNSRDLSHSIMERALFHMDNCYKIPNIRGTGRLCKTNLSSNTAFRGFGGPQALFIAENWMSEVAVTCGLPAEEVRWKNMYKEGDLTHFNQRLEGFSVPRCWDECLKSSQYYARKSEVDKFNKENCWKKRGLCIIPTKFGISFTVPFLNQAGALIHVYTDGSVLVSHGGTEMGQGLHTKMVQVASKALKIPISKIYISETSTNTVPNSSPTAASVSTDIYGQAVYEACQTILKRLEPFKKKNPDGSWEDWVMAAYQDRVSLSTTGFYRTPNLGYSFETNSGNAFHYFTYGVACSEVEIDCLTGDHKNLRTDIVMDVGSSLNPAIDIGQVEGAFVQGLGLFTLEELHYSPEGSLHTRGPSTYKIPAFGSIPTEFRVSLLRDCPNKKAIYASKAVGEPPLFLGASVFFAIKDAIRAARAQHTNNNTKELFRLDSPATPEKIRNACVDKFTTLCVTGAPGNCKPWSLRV

| inhibition at 10 µM [1] | SMILES | also measured |
| --- | --- | --- |
| 18.6% | O=C(O)c1nc(-c2ccccc2)cs1 |  |
| 12.5% | Cc1nc(-c2ccccc2)oc1C(=O)O |  |
| 4.2% | O=C(O)c1cc(-c2ccccc2)on1 |  |
| 13.9% | Cc1cc(C(=O)O)nn1-c1ccccc1 |  |
|  | CC(C)COc1ccc(-c2nc(C(=O)O)cs2)cc1[N+](=O)[O-] | IC50 [2]: 48.6 nM; Activity (Mus musculus [3]): Active |
| 37.6% | Cc1nc(-c2ccccc2)sc1C(=O)O |  |
| 32.8% | O=C(O)c1csc(-c2ccccc2)n1 |  |
|  | Cc1nc(-c2ccc(OCC(C)C)c([N+](=O)[O-])c2)sc1C(=O)O | IC50 [2]: 33.4 nM; Activity (Mus musculus [3]): Active |

| SMILES | inhibition at 10 µM [1] | also measured |
| --- | --- | --- |
| Cc1nc(-c2ccc(OCC(C)C)c(C#N)c2)sc1C(=O)O [FEBUXOSTAT] | 98.5% | Activity (Mus musculus [4]): Active |
